Results published in PubChem BioAssay AID2060602 (Molecular Pharmacology Branch, DTP, NCI, 2025).

Test system: 648629-189-R-J1-PDC complex spheroids viability
Assay: Anticancer human tumor 648629-189-R-J1-PDC patient-derived bladder carcinoma cell line growth inhibition [CLK]
Conditions: for IC50: curve of first compound; for viability, T/C: stronger effect = lower value
In short: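 Patient-derived tumor cells grown as complex spheroids with HUVEC endothelial cells and mesenchymal stem cells, treated with drug combinations. Concentrations descend in half-log steps from near clinical Cmax, or from 10 microM if Cmax unknown.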

[1] = second compound 0.0316 µM, first compound 0.0316 µM
[2] = second compound 0.0316 µM, first compound 0.1 µM
[3] = second compound 0.0316 µM, first compound 0.316 µM
[4] = second compound 0.0316 µM, first compound 1 µM
[5] = second compound 0.0316 µM, first compound 3.16 µM
[6] = second compound 0.0316 µM, first compound 10 µM
[7] = second compound 0.1 µM, first compound 0.0316 µM
[8] = second compound 0.1 µM, first compound 0.1 µM
[9] = second compound 0.1 µM, first compound 0.316 µM
[10] = second compound 0.1 µM, first compound 1 µM
[11] = second compound 0.1 µM, first compound 3.16 µM
[12] = second compound 0.1 µM, first compound 10 µM
[13] = second compound 0.316 µM, first compound 0.0316 µM
[14] = second compound 0.316 µM, first compound 0.1 µM
[15] = second compound 0.316 µM, first compound 0.316 µM
[16] = second compound 0.316 µM, first compound 1 µM
[17] = second compound 0.316 µM, first compound 3.16 µM
[18] = second compound 0.316 µM, first compound 10 µM
[19] = second compound 1 µM, first compound 0.0316 µM
[20] = second compound 1 µM, first compound 0.1 µM
[21] = second compound 1 µM, first compound 0.316 µM
[22] = second compound 1 µM, first compound 1 µM
[23] = second compound 1 µM, first compound 3.16 µM
[24] = second compound 1 µM, first compound 10 µM
[25] = second compound 3.16 µM, first compound 0.0316 µM
[26] = second compound 3.16 µM, first compound 0.1 µM
[27] = second compound 3.16 µM, first compound 0.316 µM
[28] = second compound 3.16 µM, first compound 1 µM
[29] = second compound 3.16 µM, first compound 3.16 µM
[30] = second compound 3.16 µM, first compound 10 µM
[31] = second compound 10 µM, first compound 0.0316 µM
[32] = second compound 10 µM, first compound 0.1 µM
[33] = second compound 10 µM, first compound 0.316 µM
[34] = second compound 10 µM, first compound 1 µM
[35] = second compound 10 µM, first compound 3.16 µM
[36] = second compound 10 µM, first compound 10 µM
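For viability, T/C in this document: drug exposure lasted seven days before viability readout; 100% = DMSO vehicle control wells.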

Which results are given for `COc1cccc2c1C(=O)c1c(O)c3c(c(O)c1C2=O)CC(O)(C(=O)CO)CC3OC1CC(N)C(O)C(C)O1` (stereo unspecified) + CNC(=O)c1ccc(Nc2nc(OC3CCCC3)c3c(-c4ccc5nc(C)oc5c4)c[nH]c3n2)c(OC)c1?
IC50 (second compound 0.0316 µM): < 31.6 nM; IC50 (second compound 0.1 µM): < 31.6 nM; IC50 (second compound 0.316 µM): < 31.6 nM; IC50 (second compound 1 µM): < 31.6 nM; IC50 (second compound 3.16 µM): < 31.6 nM; IC50 (second compound 10 µM): < 31.6 nM; viability, T/C [1]: 26.4%; viability, T/C [2]: 13.9%; viability, T/C [3]: 5.64%; viability, T/C [4]: 0.45%; viability, T/C [5]: 0.38%; viability, T/C [6]: 0.54%; viability, T/C [7]: 19.4%; viability, T/C [8]: 11.8%; viability, T/C [9]: 5.03%; viability, T/C [10]: 0.29%; viability, T/C [11]: 1.37%; viability, T/C [12]: 2.64%; viability, T/C [13]: 16.4%; viability, T/C [14]: 13.1%; viability, T/C [15]: 6.53%; viability, T/C [16]: 0.2%; viability, T/C [17]: 0.98%; viability, T/C [18]: 0.49%; viability, T/C [19]: 12.5%; viability, T/C [20]: 10.1%; viability, T/C [21]: 4.27%; viability, T/C [22]: 0.27%; viability, T/C [23]: 0.56%; viability, T/C [24]: 3.36%; viability, T/C [25]: 18.9%; viability, T/C [26]: 13.1%; viability, T/C [27]: 4.42%; viability, T/C [28]: 0.23%; viability, T/C [29]: 0.79%; viability, T/C [30]: 1.4%; viability, T/C [31]: 21.1%; viability, T/C [32]: 13.5%; viability, T/C [33]: 8.07%; viability, T/C [34]: 0.28%; viability, T/C [35]: 2.28%; viability, T/C [36]: 3.42%

With `CCc1c2c(nc3ccc(O)cc13)-c1cc3c(c(=O)n1C2)COC(=O)[C@]3(O)CC` + CNC(=O)c1ccc(Nc2nc(OC3CCCC3)c3c(-c4ccc5nc(C)oc5c4)c[nH]c3n2)c(OC)c1 as the compound, how does the IC50 (second compound 0.0316 µM) read?
The IC50 was less than 3.16 nM.

What about the IC50 (second compound 0.1 µM) of the same compound?
The IC50 was less than 3.16 nM.

What about the IC50 (second compound 0.316 µM) of the same compound?
Its IC50 is less than 3.16 nM.

And the IC50 (second compound 1 µM)?
The IC50 was less than 3.16 nM.

And the IC50 (second compound 3.16 µM)?
Its IC50 is less than 3.16 nM.

And the IC50 (second compound 10 µM)?
The IC50 was less than 3.16 nM.

And the viability, T/C (second compound 0.0316 µM, first compound 0.00316 µM)?
Its viability, T/C is 30.3%.

What about the viability, T/C (second compound 0.0316 µM, first compound 0.01 µM) of the same compound?
The viability, T/C was 11.5%.

And the viability, T/C [1]?
Its viability, T/C is 8.79%.

And the viability, T/C [2]?
The viability, T/C was 5.84%.

And the viability, T/C [3]?
Its viability, T/C is 5.59%.

What about the viability, T/C [4] of the same compound?
Its viability, T/C is 4.59%.

And the viability, T/C (second compound 0.1 µM, first compound 0.00316 µM)?
Its viability, T/C is 30.1%.

And the viability, T/C (second compound 0.1 µM, first compound 0.01 µM)?
Its viability, T/C is 10.5%.

And the viability, T/C [7]?
The viability, T/C was 7.18%.

What about the viability, T/C [8] of the same compound?
Its viability, T/C is 5.66%.

And the viability, T/C [9]?
The viability, T/C was 5.26%.

And the viability, T/C [10]?
Its viability, T/C is 2.75%.

And the viability, T/C (second compound 0.316 µM, first compound 0.00316 µM)?
Its viability, T/C is 14.1%.

What about the viability, T/C (second compound 0.316 µM, first compound 0.01 µM) of the same compound?
The viability, T/C was 8.48%.

And the viability, T/C [13]?
Its viability, T/C is 7.05%.

And the viability, T/C [14]?
Its viability, T/C is 4.87%.

What about the viability, T/C [15] of the same compound?
Its viability, T/C is 5.55%.

What about the viability, T/C [16] of the same compound?
The viability, T/C was 4.88%.

And the viability, T/C (second compound 1 µM, first compound 0.00316 µM)?
Its viability, T/C is 11.9%.

What about the viability, T/C (second compound 1 µM, first compound 0.01 µM) of the same compound?
Its viability, T/C is 10.9%.

What about the viability, T/C [19] of the same compound?
The viability, T/C was 8.46%.

And the viability, T/C [20]?
Its viability, T/C is 5.17%.

What about the viability, T/C [21] of the same compound?
The viability, T/C was 4.53%.

What about the viability, T/C [22] of the same compound?
Its viability, T/C is 3.56%.

What about the viability, T/C (second compound 3.16 µM, first compound 0.00316 µM) of the same compound?
Its viability, T/C is 14.8%.

What about the viability, T/C (second compound 3.16 µM, first compound 0.01 µM) of the same compound?
The viability, T/C was 13.1%.

And the viability, T/C [25]?
The viability, T/C was 9.98%.

And the viability, T/C [26]?
Its viability, T/C is 6.24%.

And the viability, T/C [27]?
The viability, T/C was 7.38%.

And the viability, T/C [28]?
The viability, T/C was 5.35%.

What about the viability, T/C (second compound 10 µM, first compound 0.00316 µM) of the same compound?
The viability, T/C was 17.2%.

What about the viability, T/C (second compound 10 µM, first compound 0.01 µM) of the same compound?
The viability, T/C was 13.8%.

And the viability, T/C [31]?
The viability, T/C was 10.4%.

What about the viability, T/C [32] of the same compound?
The viability, T/C was 7.91%.

What about the viability, T/C [33] of the same compound?
The viability, T/C was 6.48%.

What about the viability, T/C [34] of the same compound?
Its viability, T/C is 4.98%.

Which IC50 (second compound 0.0316 µM) does the source give for `C#Cc1c(F)ccc2cc(O)cc(-c3ncc4c(N5CC6CCC(C5)N6)nc(OCC56CCCN5CC(F)C6)nc4c3F)c12` (stereo unspecified) + CNC(=O)c1ccc(Nc2nc(OC3CCCC3)c3c(-c4ccc5nc(C)oc5c4)c[nH]c3n2)c(OC)c1 here?
Its IC50 is greater than 10000 nM.

And the IC50 (second compound 0.1 µM)?
The IC50 was 8430 nM.

What about the IC50 (second compound 0.316 µM) of the same compound?
Its IC50 is less than 31.6 nM.

What about the IC50 (second compound 1 µM) of the same compound?
Its IC50 is less than 31.6 nM.

And the IC50 (second compound 3.16 µM)?
The IC50 was less than 31.6 nM.

And the IC50 (second compound 10 µM)?
Its IC50 is less than 31.6 nM.

What about the viability, T/C [1] of the same compound?
The viability, T/C was 120%.

What about the viability, T/C [2] of the same compound?
The viability, T/C was 88.4%.

And the viability, T/C [3]?
Its viability, T/C is 108%.

What about the viability, T/C [4] of the same compound?
The viability, T/C was 105%.

What about the viability, T/C [5] of the same compound?
Its viability, T/C is 100%.

What about the viability, T/C [6] of the same compound?
Its viability, T/C is 91.4%.

And the viability, T/C [7]?
The viability, T/C was 83.2%.

What about the viability, T/C [8] of the same compound?
The viability, T/C was 76.9%.

What about the viability, T/C [9] of the same compound?
Its viability, T/C is 84.1%.

And the viability, T/C [10]?
The viability, T/C was 79.4%.

And the viability, T/C [11]?
Its viability, T/C is 61.8%.

And the viability, T/C [12]?
The viability, T/C was 48%.

What about the viability, T/C [13] of the same compound?
Its viability, T/C is 28.1%.

And the viability, T/C [14]?
The viability, T/C was 25.4%.

What about the viability, T/C [15] of the same compound?
The viability, T/C was 25.1%.

What about the viability, T/C [16] of the same compound?
The viability, T/C was 23%.

And the viability, T/C [17]?
Its viability, T/C is 19.3%.

And the viability, T/C [18]?
The viability, T/C was 22%.

And the viability, T/C [19]?
Its viability, T/C is 18.7%.

And the viability, T/C [20]?
The viability, T/C was 20.2%.

What about the viability, T/C [21] of the same compound?
Its viability, T/C is 15.5%.

What about the viability, T/C [22] of the same compound?
The viability, T/C was 18.6%.

What about the viability, T/C [23] of the same compound?
The viability, T/C was 18.2%.

What about the viability, T/C [24] of the same compound?
Its viability, T/C is 19.4%.

And the viability, T/C [25]?
The viability, T/C was 17.2%.

And the viability, T/C [26]?
Its viability, T/C is 17.6%.

And the viability, T/C [27]?
The viability, T/C was 15.4%.

And the viability, T/C [28]?
Its viability, T/C is 16.9%.

What about the viability, T/C [29] of the same compound?
Its viability, T/C is 17.6%.

And the viability, T/C [30]?
Its viability, T/C is 17.9%.

And the viability, T/C [31]?
Its viability, T/C is 20.1%.

What about the viability, T/C [32] of the same compound?
The viability, T/C was 18.5%.

What about the viability, T/C [33] of the same compound?
Its viability, T/C is 18%.

What about the viability, T/C [34] of the same compound?
Its viability, T/C is 17%.

What about the viability, T/C [35] of the same compound?
The viability, T/C was 21.5%.

And the viability, T/C [36]?
Its viability, T/C is 16.6%.
